Measured values from patent US7833785B2, “Method for chemical dissociation of cells from physical surfaces” (priority 2004, dated 2010).
Structures can show the parent of a compound that is named as a salt.

Experiments:
[1] = tested on: mouse embryonic stem cells; assay: Detachment and dissociation of mouse embryonic stem cells using different bases in PBS with 10 mM EDTA; trypan blue exclusion; details: for Average Viable Cell Conc.: base in 1×PBS with 10 mM EDTA; for Average Viable Cell Conc. / Average Cell Viability: n=3; for Fold Increase in number of viable cells: inoculated at 3.13×10^4 cells/mL; for Average Cell Viability: trypan blue exclusion
Description: (§1) A total of five different dissociation solutions were tested for their ability to detach and dissociate mouse embryonic stem cells. Each solution was made by adding a different base to a basal solution (1×PBS solution containing 10 mM EDTA).
(§2) A volume of 2.0 mL of the appropriate dissociation solution was then added to each 25 cm^2 tissue culture flask, and the flasks were placed in an incubator at 37° C. The flasks were rocked intermittently over a period of 22 minutes after which gentle pipetting was used to break up any remaining clumps of cells. The cell suspension was collected and added to a sterile 15 mL tube containing 5.0 mL of medium and then centrifuged for 5 minutes at 1000 rpm. […] After centrifugation, the supernatant was discarded and the pellet was resuspended in 1.0 mL of medium.

[2] = tested on: mouse neurospheres; assay: Dissociation of mouse neurospheres using different alkaline solutions; trypan blue exclusion, serial subculture; details: for Average Viable Cell Conc.: base in PPRF-m4, neutralized with HCl; for Average Viable Cell Conc. / Average Cell Viability: n=3; for Fold Increase in number of viable cells: inoculated at 0.75×10^5 cells/mL; for Average Cell Viability: trypan blue exclusion
Description: (§3) Table 2. […] Following dissociation, the pH was reduced by using neutralizing solution generated using HCl.
(§4) In order to counteract the pH effect of the alkaline dissociation solutions on the cells, an appropriate quantity of acidic medium was added.
(§5) The supernatant was completely removed. […] A volume of 200 μL was added to those samples dissociated with sodium hydroxide, potassium hydroxide or sodium phosphate tribasic dodecahydrate. A volume of 300 μL was added to those samples dissociated using ammonium hydroxide. […] Following the addition of the acidic medium, the cell sample was gently pipetted 5 more times.

[3] = tested on: mouse neurospheres; assay: Different acidic neutralizing solutions after NaOH dissociation of mouse neurospheres; trypan blue exclusion, serial subculture; details: for Average Viable Cell Conc.: NaOH dissociation, acid as neutralizing solution; for Average Viable Cell Conc. / Average Cell Viability: n=3; for Average Cell Viability: trypan blue exclusion
Description: (§6) The viable cell concentration, viabilities, and fold increase in number of viable cells for mouse neurospheres exposed to different acidic neutralizing solutions following chemical dissociation. The aggregates were dissociated into a single cell suspension using an NaOH based dissociation solution. Acidic neutralizing solutions generated using a variety of acids (listed in table) were then added to counteract the high pH of the dissociation medium. Cell counts and viabilities were determined by trypan blue exclusion. Cells were serially subcultured for 4 passages in 25 cm^2 tissue culture flasks containing 5 mL of PPRF-m4 medium. The flasks were maintained in a humidified 37° C. incubator containing 5% CO2 (Average values, n=3).
(§7) All of the experiments conducted to test the effect of different neutralizing solutions employed an NaOH based dissociation medium to dissociate the cells.
(§8) Passage 3 mouse neurospheres originally procured from the striata of 14 day old embryonic mice were thawed and passaged twice (passage 5) in PPRF-m4 medium. These neuropsheres samples were previously dissociated by mechanical dissociation at each passage prior to being used for the experiments described here. Passage 5 mouse neurospheres were isolated and centrifuged (10 minutes, 140 g) to form a cell pellet in a 15 mL centrifuge tube. The supernatant was completely removed. The aggregates were then resuspended in 200 μL of fresh PPRF-m4 medium at room temperature by pipetting the cell pellet 5 times. 200 μL of an NaOH based alkaline dissociation medium was then added to the tube, and a stopwatch was used to time the procedure for 7 minutes. After 2 minutes and 5 minutes had elapsed, the cells were gently pipetted 5 times. After 7 minutes had elapsed, 200 μL of an acidic neutralizing medium was added to the mixture to decrease the pH, and the sample was gently pipetted 5 more times. […] The cell concentration and viability of the resulting cell suspension was determined using trypan blue exclusion, and the single cells were inoculated at 7.5×10^5 cells/mL into 25 cm^2 tissue culture flasks to determine if the neutralizing solution inhibited the cells from proliferating (Table 3). The cells were subsequently serially subcultured using the same neutralizing solution to which they had previously been exposed.

[4] = in vitro; details: mouse, Average Cell Viability
Description: as §6, §7, §8

[5] = in vitro; details: mouse, Average Cell Viability; remark: listed apart in the source
Description: as §1, §2

[6] = in vitro; details: mouse, Average Cell Viability; remark: listed apart in the source
Description: as §3, §4, §5

SMILES | Average Viable Cell Conc. ([1]; passage 1) | Average Viable Cell Conc. ([1]; passage 2) | Average Viable Cell Conc. ([1]; passage 3) | Average Viable Cell Conc. ([1]; passage 4) | Average Viable Cell Conc. ([2]; passage 1) | Average Viable Cell Conc. ([2]; passage 2) | Average Viable Cell Conc. ([2]; passage 3) | Average Viable Cell Conc. ([2]; passage 4) | Fold Increase in number of viable cells ([3]; passage 1) | Average Viable Cell Conc. ([3]; passage 1) | Fold Increase in number of viable cells ([3]; passage 2) | Average Viable Cell Conc. ([3]; passage 2) | Fold Increase in number of viable cells ([3]; passage 3) | Average Viable Cell Conc. ([3]; passage 3) | Fold Increase in number of viable cells ([3]; passage 4) | Average Viable Cell Conc. ([3]; passage 4) | Fold Increase in number of viable cells ([1]; passage 1) | Fold Increase in number of viable cells ([1]; passage 2) | Fold Increase in number of viable cells ([1]; passage 3) | Fold Increase in number of viable cells ([1]; passage 4) | also measured
O=C([O-])[O-].[Na+].[Na+] [Sodium Carbonate, sodium carbonate] | 3.7 10^5 cells/mL | 3.6 10^5 cells/mL | 7.7 10^5 cells/mL | 6.8 10^5 cells/mL | 7.7 10^5 cells/mL | 11.4 10^5 cells/mL | 11.1 10^5 cells/mL | 8.7 10^5 cells/mL |  |  |  |  |  |  |  |  |  |  |  |  | 
CC(=O)O [Acetic Acid, acetic acid] |  |  |  |  |  |  |  |  | 13 | 9.6 10^5 cells/mL | 20 | 14.3 10^5 cells/mL | 10 | 7.2 10^5 cells/mL | 17 | 12.8 10^5 cells/mL |  |  |  |  | viability [4]: 91%
O=P(O)(O)O [Phosphoric Acid, phosphoric acid] |  |  |  |  |  |  |  |  | 15 | 11.5 10^5 cells/mL | 23 | 17.3 10^5 cells/mL | 6 | 4.2 10^5 cells/mL | 16 | 11.8 10^5 cells/mL |  |  |  |  | viability [4]: 91%
N [Ammonium Hydroxide, ammonium hydroxide] | 4.1 10^5 cells/mL | 1.4 10^5 cells/mL | 2.7 10^5 cells/mL | 5.1 10^5 cells/mL | 6.2 10^5 cells/mL | 8.4 10^5 cells/mL | 10.5 10^5 cells/mL | 9.1 10^5 cells/mL |  |  |  |  |  |  |  |  | 13 | 4 | 8 | 16 | viability at 22 min, 9.9 mM [5]: 84%; viability at 7 min, 23.8 mM [6]: 91%; Fold Increase in number of viable cells ([2]; passage 1): 8; Fold Increase in number of viable cells ([2]; passage 2): 11; Fold Increase in number of viable cells ([2]; passage 3): 14; Fold Increase in number of viable cells ([2]; passage 4): 12
O=S(=O)(O)O [Sulfuric Acid, sulfuric acid] |  |  |  |  |  |  |  |  | 14 | 10.5 10^5 cells/mL | 18 | 13.1 10^5 cells/mL | 8 | 6.1 10^5 cells/mL | 15 | 11.3 10^5 cells/mL |  |  |  |  | viability [4]: 89%
[Na+].[OH-] [NaOH, sodium hydroxide] | 3.6 10^5 cells/mL | 6.2 10^5 cells/mL | 7.5 10^5 cells/mL | 5.7 10^5 cells/mL | 8.7 10^5 cells/mL | 12.9 10^5 cells/mL | 8.8 10^5 cells/mL | 13.9 10^5 cells/mL |  |  |  |  |  |  |  |  | 12 | 20 | 24 | 18 | Fold Increase in number of viable cells ([2]; passage 1): 12; Fold Increase in number of viable cells ([2]; passage 2): 17; Fold Increase in number of viable cells ([2]; passage 3): 12; Fold Increase in number of viable cells ([2]; passage 4): 18
O.O.O.O.O.O.O.O.O.O.O.O.O=P([O-])([O-])[O-].[Na+].[Na+].[Na+] [Sodium Phosphate, sodium phosphate tribasic dodecahydrate] | 4.2 10^5 cells/mL | 2.0 10^5 cells/mL | 4.1 10^5 cells/mL | 6.7 10^5 cells/mL | 11.5 10^5 cells/mL | 7.3 10^5 cells/mL | 13.9 10^5 cells/mL | 10.2 10^5 cells/mL |  |  |  |  |  |  |  |  | 14 | 6 | 13 | 21 | Average Cell Viability ([1]; passage 1): 88%; Average Cell Viability ([1]; passage 2): 91%; Average Cell Viability ([1]; passage 3): 87%; Average Cell Viability ([1]; passage 4): 84%; Fold Increase in number of viable cells ([2]; passage 1): 15; Average Cell Viability ([2]; passage 1): 87%; Fold Increase in number of viable cells ([2]; passage 2): 10; Average Cell Viability ([2]; passage 2): 89%; Fold Increase in number of viable cells ([2]; passage 3): 18; Average Cell Viability ([2]; passage 3): 89%; Fold Increase in number of viable cells ([2]; passage 4): 14; Average Cell Viability ([2]; passage 4): 93%
[K+].[OH-] [KOH, potassium hydroxide] | 4.3 10^5 cells/mL | 1.8 10^5 cells/mL | 3.2 10^5 cells/mL | 4.4 10^5 cells/mL | 7.1 10^5 cells/mL | 8.7 10^5 cells/mL | 13.9 10^5 cells/mL | 19.0 10^5 cells/mL |  |  |  |  |  |  |  |  | 14 | 6 | 10 | 14 | Average Cell Viability ([1]; passage 1): 89%; Average Cell Viability ([1]; passage 2): 86%; Average Cell Viability ([1]; passage 3): 81%; Average Cell Viability ([1]; passage 4): 81%; Fold Increase in number of viable cells ([2]; passage 1): 9.4; Average Cell Viability ([2]; passage 1): 81%; Fold Increase in number of viable cells ([2]; passage 2): 12; Average Cell Viability ([2]; passage 2): 85%; Fold Increase in number of viable cells ([2]; passage 3): 18; Average Cell Viability ([2]; passage 3): 9%; Fold Increase in number of viable cells ([2]; passage 4): 25; Average Cell Viability ([2]; passage 4): 93%
Cl [HCl, hydrochloric acid] |  |  |  |  |  |  |  |  | 14 | 10.9 10^5 cells/mL | 17 | 12.7 10^5 cells/mL | 12 | 9.0 10^5 cells/mL | 14 | 10.2 10^5 cells/mL |  |  |  |  | Average Cell Viability ([3]; passage 1): 91%; Average Cell Viability ([3]; passage 2): 92%; Average Cell Viability ([3]; passage 3): 92%; Average Cell Viability ([3]; passage 4): 89%
